{"source": "ChEMBL document CHEMBL4732091", "about": "“Design, synthesis and biological evaluation of novel thiosemicarbazone-indole derivatives targeting prostate cancer cells” (Eur J Med Chem, 2021)", "key": {"PC-3 [1]": {"test_system": "PC-3", "assay": "Antiproliferative activity against human PC-3 cells assessed as inhibition of cell proliferation measured after 72 hrs by MTT assay", "format": "functional, cell-based", "details": "PC-3, 72 h"}, "PC-3 [2]": {"test_system": "PC-3", "assay": "Antiproliferative activity against human PC-3 cells assessed as inhibition of cell proliferation in presence of Fe3+ measured after 72 hrs by MTT assay", "format": "functional, cell-based"}, "PC-3 [3]": {"test_system": "PC-3", "assay": "Antiproliferative activity against human PC-3 cells assessed as inhibition of cell proliferation at 0.156 to 20 uM by MTT assay", "format": "functional, cell-based", "details": "dose 0.156-20 µM, time 24-72 hrs, TDE = time-dependent effect"}, "DU-145 [4]": {"test_system": "DU-145", "assay": "Induction of apoptosis in human DU-145 cells assessed as necrotic cells at 0.5 uM measured after 72 hrs by Annexin V-FITC/propidium iodide staining based flow cytometry method (reference value: 1.13 %)", "format": "functional"}, "DU-145 [5]": {"test_system": "DU-145", "assay": "Induction of apoptosis in human DU-145 cells assessed as reduction in Bcl-2 expression at 0.5 to 2 uM measured by Western blot assay", "format": "functional, cell-based", "details": "dose 0.5-2 µM"}, "DU-145 [6]": {"test_system": "DU-145", "assay": "Induction of apoptosis in human DU-145 cells assessed as late apoptotic cells at 0.5 uM measured after 72 hrs by Annexin V-FITC/propidium iodide staining based flow cytometry method (reference value: 1.77 %)", "format": "functional"}, "MGC-803": {"test_system": "MGC-803", "assay": "Antiproliferative activity against human MGC-803 cell line cells assessed as inhibition of cell proliferation measured after 72 hrs by MTT assay", "format": "functional, cell-based", "details": "MGC-803, 72 h"}, "PC-3 [7]": {"test_system": "PC-3", "assay": "Induction of apoptosis in human PC-3 cells assessed as late apoptotic cells at 25 nM measured after 72 hrs by Annexin V-FITC/propidium iodide staining based flow cytometry method (reference value: 1.01 %)", "format": "functional"}, "PC-3 [8]": {"test_system": "PC-3", "assay": "Induction of ROS generation in human PC-3 cells assessed as increase in intracellular ROS level at 250 nM pretreated with NAC followed by compound treatment measured after 48 hrs by DCFH-DA staining based flowcytometry method", "format": "functional, cell-based"}, "PC-3 [9]": {"test_system": "PC-3", "assay": "Induction of apoptosis in human PC-3 cells assessed as viable cells at 25 nM measured after 72 hrs by Annexin V-FITC/propidium iodide staining based flow cytometry method (reference value: 97.2 %)", "format": "functional", "details": "read-out: Activity"}, "DU-145 [10]": {"test_system": "DU-145", "assay": "Induction of ROS generation in human DU-145 cells assessed as intracellular ROS level at 6 uM measured after 48 hrs by DCFH-DA staining based flowcytometry method (reference value: 52 %)", "format": "functional"}, "PC-3 [11]": {"test_system": "PC-3", "assay": "Induction of apoptosis in human PC-3 cells assessed as increase in p53 expression at 25 to 100 nM measured by Western blot assay", "format": "functional, cell-based", "details": "dose 25-100 nM"}, "DU-145 [12]": {"test_system": "DU-145", "assay": "Antiproliferative activity against human DU-145 cells assessed as inhibition of cell proliferation at 0.156 to 20 uM by MTT assay", "format": "functional, cell-based", "details": "dose 0.156-20 µM, time 24-72 hrs, TDE = time-dependent effect"}, "DU-145 [13]": {"test_system": "DU-145", "assay": "Induction of apoptosis in human DU-145 cells assessed as viable cells at 0.5 uM measured after 72 hrs by Annexin V-FITC/propidium iodide staining based flow cytometry method (reference value: 96.3 %)", "format": "functional", "details": "read-out: Activity"}, "DU-145 [14]": {"test_system": "DU-145", "assay": "Induction of apoptosis in human DU-145 cells assessed as nuclear fragmentation at 0.5 to 2 uM measured after 72 hrs by Hoechst staining based fluorescence method", "format": "functional, cell-based", "details": "dose 0.5-2 µM"}, "[15]": {"assay": "Toxicity in BALB/c-NU mouse assessed as changes in body weight at 12.5 to 25 mg/kg, IG qd for 21 days measured every 2 days", "format": "organism-based", "details": "in vivo, po, 504 h, dose 12.5-25 mg/kg, time 21 day"}, "DU-145 [16]": {"test_system": "DU-145", "assay": "Induction of apoptosis in human DU-145 cells assessed as early apoptotic cells at 1 uM measured after 72 hrs by Annexin V-FITC/propidium iodide staining based flow cytometry method (reference value: 0.835 %)", "format": "functional"}, "DU-145 [17]": {"test_system": "DU-145", "assay": "Antiproliferative activity against human DU-145 cells assessed as inhibition of cell proliferation measured after 24 to 72 hrs by MTT assay", "format": "functional, cell-based", "details": "dose 0.156-20 µM, time 24-72 hrs"}, "PC-3 [18]": {"test_system": "PC-3", "assay": "Induction of ROS generation in human PC-3 cells assessed as increase in intracellular ROS level measured after 48 hrs by DCFH-DA staining based flowcytometry method", "format": "functional, cell-based", "details": "dose 25-100 nM"}, "DU-145 [19]": {"test_system": "DU-145", "assay": "Induction of apoptosis in human DU-145 cells assessed as necrotic cells at 1 uM measured after 72 hrs by Annexin V-FITC/propidium iodide staining based flow cytometry method (reference value: 1.13 %)", "format": "functional"}, "PC-3 [20]": {"test_system": "PC-3", "assay": "Induction of apoptosis in human PC-3 cells assessed as reduction in Bcl-2 expression at 25 to 100 nM measured by Western blot assay", "format": "functional, cell-based", "details": "dose 25-100 nM"}, "PC-3 [21]": {"test_system": "PC-3", "assay": "Antiproliferative activity against human PC-3 cells assessed as reduction in colony formation at 12.5 to 50 nM measured after 6 days by crystal violet staining based colony assay", "format": "functional, cell-based", "details": "dose 12.5-50 nM, time 6.0 day"}, "PC-3 [22]": {"test_system": "PC-3", "assay": "Induction of apoptosis in human PC-3 cells assessed as necrotic cells at 50 nM measured after 72 hrs by Annexin V-FITC/propidium iodide staining based flow cytometry method (reference value: 1.2 %)", "format": "functional"}, "DU-145 [23]": {"test_system": "DU-145", "assay": "Induction of ROS generation in human DU-145 cells assessed as intracellular ROS level at 3 uM pretreated with NAC followed by compound treatment measured after 48 hrs by DCFH-DA staining based flowcytometry method (reference value: 75.1 %)", "format": "functional"}, "DU-145 [24]": {"test_system": "DU-145", "assay": "Induction of apoptosis in human DU-145 cells assessed as late apoptotic cells at 1 uM measured after 72 hrs by Annexin V-FITC/propidium iodide staining based flow cytometry method (reference value: 1.77 %)", "format": "functional"}, "DU-145 [25]": {"test_system": "DU-145", "assay": "Induction of apoptosis in human DU-145 cells assessed as viable cells at 2 uM measured after 72 hrs by Annexin V-FITC/propidium iodide staining based flow cytometry method (reference value: 96.3 %)", "format": "functional", "details": "read-out: Activity"}, "DU-145 [26]": {"test_system": "DU-145", "assay": "Induction of cell cycle arrest in human DU-145 cells assessed as accumulation at G1/S phase measured after 48 hrs by PI staining based Flowcytometry method", "format": "functional", "details": "dose 1.5-6 µM"}, "[27]": {"assay": "Toxicity in C57BL/6 mouse assessed as effect on lung at 2 mg/kg, IG measured after 2 weeks by hematoxylin and eosin staining based imaging analysis", "format": "organism-based", "details": "in vivo, po, 336 h"}, "PC-3 [28]": {"test_system": "PC-3", "assay": "Induction of ROS generation in human PC-3 cells assessed as intracellular ROS level at 500 nM measured after 48 hrs by DCFH-DA staining based flowcytometry method (reference value: 55.2 %)", "format": "functional"}, "PC-3 [29]": {"test_system": "PC-3", "assay": "Induction of apoptosis in human PC-3 cells assessed as early apoptotic cells at 100 nM measured after 72 hrs by Annexin V-FITC/propidium iodide staining based flow cytometry method (reference value: 0.452 %)", "format": "functional"}, "DU-145 [30]": {"test_system": "DU-145", "assay": "Activation of MAPK signaling in human DU-145 cells assessed as increase in phosphorylated JNK (Thr 183/Tyr 185) at 125 to 500 nM measured by Western blot assay", "format": "cell-based", "details": "filed as activator, dose 125-500 nM"}, "DU-145 [31]": {"test_system": "DU-145", "assay": "Induction of ROS generation in human DU-145 cells assessed as increase in intracellular ROS level at 250 nM pretreated with NAC followed by compound treatment measured after 48 hrs by DCFH-DA staining based flowcytometry method", "format": "functional, cell-based"}, "PC-3 [32]": {"test_system": "PC-3", "assay": "Induction of ROS generation in human PC-3 cells assessed as intracellular ROS level at 125 nM measured after 48 hrs by DCFH-DA staining based flowcytometry method (reference value: 55.2 %)", "format": "functional"}}, "note": "Active and inactive are the calls of the source. The rule behind the calls is not given here.", "data": [{"molecule": "Cc1ccc(/C=N/NC(=S)Nc2ccc(C(=O)NCCc3c(C)[nH]c4ccccc34)cc2)nc1", "values": [{"measurement": "IC50", "setting": "PC-3 [1]", "value": 54, "unit": "nM"}, {"measurement": "inhibition", "setting": "PC-3 [2]", "value": "Active"}, {"measurement": "Activity", "setting": "PC-3 [3]", "value": "Tde"}, {"measurement": "Activity", "setting": "DU-145 [4]", "value": 1.95, "unit": "%"}, {"measurement": "Activity", "setting": "DU-145 [5]", "value": "Active"}, {"measurement": "Activity", "setting": "DU-145 [6]", "value": 3.78, "unit": "%"}, {"measurement": "IC50", "setting": "MGC-803", "value": 4.72, "unit": "µM"}, {"measurement": "Activity", "setting": "PC-3 [7]", "value": 4.36, "unit": "%"}, {"measurement": "Activity", "setting": "PC-3 [8]", "value": "inactive"}, {"measurement": "viability at 0.025 µM", "setting": "PC-3 [9]", "value": 98.5, "unit": "%"}, {"measurement": "Activity", "setting": "DU-145 [10]", "value": 86.2, "unit": "%"}, {"measurement": "Activity", "setting": "PC-3 [11]", "value": "Active"}, {"measurement": "Activity", "setting": "DU-145 [12]", "value": "Tde"}, {"measurement": "viability at 0.5 µM", "setting": "DU-145 [13]", "value": 90.2, "unit": "%"}, {"measurement": "Activity", "setting": "DU-145 [14]", "value": "Active"}, {"measurement": "Activity", "setting": "[15]", "value": "Non-Toxic"}, {"measurement": "Activity", "setting": "DU-145 [16]", "value": 10.6, "unit": "%"}, {"measurement": "inhibition", "setting": "DU-145 [17]", "value": "Dose-dependent effect"}, {"measurement": "Activity", "setting": "PC-3 [18]", "value": "Dose-dependent effect"}, {"measurement": "Activity", "setting": "DU-145 [19]", "value": 4.81, "unit": "%"}, {"measurement": "Activity", "setting": "PC-3 [20]", "value": "Active"}, {"measurement": "inhibition", "setting": "PC-3 [21]", "value": "Active"}, {"measurement": "Activity", "setting": "PC-3 [22]", "value": 8.91, "unit": "%"}, {"measurement": "Activity", "setting": "DU-145 [23]", "value": 60.1, "unit": "%"}, {"measurement": "Activity", "setting": "DU-145 [24]", "value": 22.5, "unit": "%"}, {"measurement": "viability at 2 µM", "setting": "DU-145 [25]", "value": 43.8, "unit": "%"}, {"measurement": "Activity", "setting": "DU-145 [26]", "value": "Dose-dependent effect"}, {"measurement": "Activity", "setting": "[27]", "value": "Non-Toxic"}, {"measurement": "Activity", "setting": "PC-3 [28]", "value": 98.9, "unit": "%"}, {"measurement": "Activity", "setting": "PC-3 [29]", "value": 5.76, "unit": "%"}, {"measurement": "Activity", "setting": "DU-145 [30]", "value": "Active"}, {"measurement": "Activity", "setting": "DU-145 [31]", "value": "inactive"}, {"measurement": "Activity", "setting": "PC-3 [32]", "value": 75.4, "unit": "%"}]}]}
